Experimental data published in patent publication US12209072B2, “Cyclopentyl acids as LPA antagonists” (BRISTOL-MYERS SQUIBB COMPANY, priority 2018, dated 2025).

Biological target: T1, human LPA1 (Homo sapiens, UniProt Q92633)
T1 construct: expressed in transfected cells; host or cells: Chinese hamster ovary (CHO) cells
Experiment: LPA1 functional antagonist assay (LPA-induced calcium flux)
Format: cell-based
Conditions: CHO cells overexpressing human LPA1; inhibition of calcium flux induced by 10 nM LPA; read-out: hLPA1 IC50
Protocol: The effectiveness of compounds of the present invention as LPA1 inhibitors can be determined in an LPA1 functional antagonist assay as follows:
Chinese hamster ovary cells overexpressing human LPA1 were plated overnight (15,000 cells/well) in poly-D-lysine coated 384-well microplates (Greiner bio-one, Cat #781946) in DMEM/F12 medium (Gibco, Cat #11039). Following overnight culture, cells were loaded with calcium indicator dye (AAT Bioquest Inc, Cat #34601) for 30 minutes at 37° C. The cells were then equilibrated to room temperature for 30 minutes before the assay. Test compounds solubilized in DMSO were transferred to 384 well non-binding surface plates (Corning, Cat #3575) using the Labcyte Echo acoustic dispense and diluted with assay buffer [1×HBSS with calcium/magnesium (Gibco Cat #14025-092), 20 mM HEPES (Gibco Cat #15630-080) and 0.1% fatty acid free BSA (Sigma Cat #A9205)] to a final concentration of 0.5% DMSO. Diluted compounds were added to the cells by FDSS6000 (Hamamatsu) at final concentrations ranging from 0.08 nM to 5 μM. and were then incubated for 20 min at room temperature at which time LPA (Avanti Polar Lipids Cat #857130C) was added at final concentrations of 10 nM to stimulate the cells. The compound IC50 value was defined as the concentration of test compound which inhibited 50% of the calcium flux induced by LPA alone. IC50 values were determined by fitting data to a 4-parameter logistic equation (GraphPad Prism, San Diego CA).

T1 sequence (Q92633 whole entry): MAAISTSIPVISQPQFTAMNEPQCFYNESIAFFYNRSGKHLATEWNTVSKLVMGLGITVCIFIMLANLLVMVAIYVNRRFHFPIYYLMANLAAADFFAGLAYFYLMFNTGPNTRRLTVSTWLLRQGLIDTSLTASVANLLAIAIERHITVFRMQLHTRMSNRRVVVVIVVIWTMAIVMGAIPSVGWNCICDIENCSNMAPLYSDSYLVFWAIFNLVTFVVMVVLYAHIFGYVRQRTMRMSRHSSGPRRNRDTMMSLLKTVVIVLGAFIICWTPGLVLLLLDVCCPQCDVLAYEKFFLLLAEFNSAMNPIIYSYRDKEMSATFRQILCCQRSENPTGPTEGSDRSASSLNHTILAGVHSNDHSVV

| Compound | IC50 |
| --- | --- |
| Cc1nc(-c2onc(C)c2COC(=O)N(C)C2CCCC2)ccc1O[C@H]1CC[C@H](C(=O)O)C1 (racemic) [Example 77, (±)-trans-3-({6-[4-({[cyclopentyl(methyl)carbamoyl]oxy}methyl)-3-methyl-1,2-oxazol-5-yl]-2-methyl-pyridin-3-yl}oxy)cyclopentane-1-carboxylic acid] | 66 nM |
| Cc1nc(-c2nnn(C)c2CNc2noc(CCC3CCC3)n2)ccc1O[C@H]1CC[C@H](CC(=O)O)C1 (racemic) [Example 80, (±)-2-(3-((6-(5-(((5-(2-cyclobutylethyl)-1,2,4-oxadiazol-3-yl)amino)methyl)-1-methyl-1H-1,2,3-triazol-4-yl)-2-methylpyridin-3-yl)oxy)cyclopentyl)acetic Acid] | 108 nM |
| Cc1nc(-c2nnn(C)c2NC(=O)OCC(C)C)ccc1O[C@H]1CC[C@H](CC(=O)O)C1 (racemic) [Example 81, (±)-Trans-2-(3-((6-(5-((isobutoxycarbonyl)amino)-1-methyl-1H-1,2,3-triazol-4-yl)-2-methylpyridin-3-yl)oxy)cyclopentyl)acetic Acid] | 613 nM |
| Cc1nc(-c2nnn(C)c2CNc2noc(CC3CC3)n2)ccc1O[C@H]1CC[C@H](CC(=O)O)C1 (racemic) [Example 82, (±)-trans-2-[3-({6-[5-({[5-(cyclopropyl-methyl)-1,2,4-oxadiazol-3-yl]amino}methyl)-1-methyl-1H-1,2,3-triazol-4-yl]-2-methylpyridin-3-yl}oxy)cyclo-pentyl]acetic acid] | 572 nM |
| Cc1nc(-c2nnn(C)c2NC(=O)OCC2CC2)ccc1O[C@H]1CC[C@H](CC(=O)O)C1 (racemic) [Example 83, (±)-trans-2-[3-{[6-(5-{(cyclopropylmethoxy)carbonyl]amino}-1-methyl-1H-1,2,3-triazol-4-yl)-2-methyl-pyridin-3-yl]oxy}cyclopentyl]acetic acid] | 1230 nM |
| Cc1nc(-c2onc(C)c2COC(=O)N(C)C2CCCC2)ccc1O[C@H]1CCC[C@H]1CC(=O)O (racemic) [Example 85, (±)-Cis-2-(2-((6-(4-(((cyclopentyl(methyl)carbamoyl)oxy)methyl)-3-methylisoxazol-5-yl)-2-methylpyridin-3-yl)oxy)cyclopentyl)acetic Acid] | 29 nM |
| CCCCN(C)C(=O)OCc1c(-c2ccc(O[C@@H]3CC[C@@H](CC(=O)O)C3)c(CC)n2)nnn1C (racemic) [Example 86, (±)-2-((trans)-3-((6-(5-(((butyl(methyl)carbamoyl)oxy)methyl)-1-methyl-1H-1,2,3-triazol-4-yl)-2-ethylpyridin-3-yl)oxy)cyclopentyl)acetic acid] | 48 nM |
| CCc1nc(-c2nnn(C)c2COC(=O)N(C)CC2CCC2)ccc1O[C@@H]1CC[C@@H](CC(=O)O)C1 (racemic) [Example 87, (±)-2-((trans)-3-((6-(5-((((cyclo-butylmethyl)(methyl)carba-moyl)oxy)methyl)-1-methyl-1H-1,2,3-triazol-4-yl)-2-ethyl-pyridin-3-yl)oxy)cyclopentyl)acetic acid] | 46 nM |
| CCCN(C)C(=O)OCc1c(-c2ccc(O[C@H]3CCC[C@H]3CC(=O)O)c(C)n2)nnn1C (racemic) [Example 88, (±)-cis-2-(2-((2-methyl-6-(1-methyl-5-(((methyl(propyl)carbamoyl)oxy)methyl)-1H-1,2,3-triazol-4-yl)pyridin-3-yl)oxy)cyclopentyl)acetic acid] | 425 nM |
| Cc1nc(-c2nnn(C)c2COC(=O)N(C)CC2CC2)ccc1O[C@H]1CCC[C@H]1CC(=O)O (racemic) [Example 89, (±)-cis-2-(2-((6-(5-((((cyclopropyl-methyl)(methyl)carbamoyl)oxy)methyl)-1-methyl-1H-1,2,3-triazol-4-yl)-2-methylpyridin-3-yl)oxy)cyclopentyl)acetic acid] | 291 nM |
| CN(C(=O)OCc1c(-c2ccc(O[C@H]3CC[C@@H](C(=O)O)C3)cc2)nnn1C)C1CCCC1 (relative stereo) [Example 11, Cis-3-(4-(5-(((cyclopentyl(methyl)carbamoyl)oxy)methyl)-1-methyl-1H-1,2,3-triazol-4-yl)phenoxy)cyclo-pentane-1-carboxylic acid] | 386 nM |
| CC(C)CCN(C)C(=O)OCc1c(-c2ccc(O[C@H]3CC[C@@H](C(=O)O)C3)cc2)nnn1C (relative stereo) [Example 12, Cis-3-(4-(5-(((isopentyl(methyl)carbamoyl)oxy)methyl)-1-methyl-1H-1,2,3-triazol-4-yl)phenoxy)cyclo-pentane-1-carboxylic acid] | 448 nM |
| Cc1nc(-c2nnn(C)c2CNc2nccc(C(C)C)n2)ccc1O[C@@H]1CC[C@@H](CC(=O)O)C1 (relative stereo) [Example 40, 2-(trans-3-((6-(5-(((4-isopropylpyrimidin-2-yl)amino)methyl)-1-methyl-1H-1,2,3-triazol-4-yl)-2-methylpyridin-3-yl)oxy)cyclopentyl)acetic acid] | 92 nM |
| Cc1noc(-c2ccc(O[C@H]3CC[C@@H](C(=O)O)C3)cc2)c1NC(=O)O[C@H](C)c1ccccc1 (single isomer, unassigned) [Example 1] | 104 nM |
| CCCCN(C)C(=O)OCc1c(-c2ccc(O[C@H]3CC[C@H](CC(=O)O)C3)c(C)n2)nnn1C (single isomer, unassigned) [Example 4, (±)-Trans-2-(3-((6-(5-(((butyl(methyl)carbamoyl)oxy)methyl)-1-methyl-1H-1,2,3-triazol-4-yl)-2-methylpyridin-3-yl)oxy)cyclopentyl)acetic Acid] | 15 nM |

Second part, the compound after the results:

| IC50 | Compound |
| --- | --- |
| 40 nM | Cc1noc(-c2ccc(OC[C@@H]3CC[C@H](C(=O)O)C3)cn2)c1CNc1nccc(-c2ccccn2)n1 (relative stereo) [Example 33, cis-3-(((6-(3-methyl-4-(((4-(pyridin-2-yl)pyrimidin-2-yl)amino)methyl)isoxazol-5-yl)pyridin-3-yl)oxy)methyl)cyclopentane-1-carboxylic acid] |
| 247 nM | Cc1noc(-c2ccc(O[C@@H]3CC[C@@H](C(=O)O)C3)cn2)c1CNc1nccc(-c2ccccn2)n1 (relative stereo) [Example 34, trans-3-((6-(3-methyl-4-(((4-(pyridin-2-yl)pyrimidin-2-yl)amino)methyl)isoxazol-5-yl)pyridin-3-yl)oxy)cyclo-pentane-1-carboxylic acid] |
| 9 nM | Cc1nc(-c2onc(C)c2CNc2nccc(-c3ccccn3)n2)ccc1OC[C@@H]1CC[C@H](C(=O)O)C1 (relative stereo) [Example 35, cis-3-(((2-methyl-6-(3-methyl-4-(((4-(pyridin-2-yl)pyrimidin-2-yl)amino)methyl)isoxazol-5-yl)pyridin-3-yl)oxy)methyl)cyclopentane-1-carboxylic acid] |
| 119 nM | Cc1nc(-c2nnn(C)c2CNc2nccc(-c3ccccn3)n2)ccc1OC[C@@H]1CC[C@H](C(=O)O)C1 (relative stereo) [Example 36, cis-3-(((2-methyl-6-(1-methyl-5-(((4-(pyridin-2-yl)pyrimidin-2-yl)amino)methyl)-1H-1,2,3-triazol-4-yl)pyridin-3-yl)oxy)methyl)cyclopentane-1-carboxylic acid] |
| 172 nM | Cn1nnc(-c2ccc(OC[C@@H]3CC[C@H](C(=O)O)C3)cn2)c1CNc1nccc(-c2ccccn2)n1 (relative stereo) [Example 37, cis-3-(((6-(1-methyl-5-(((4-(pyridin-2-yl)pyrimidin-2-yl)amino)methyl)-1H-1,2,3-triazol-4-yl)pyridin-3-yl)oxy)methyl)cyclopentane-1-carboxylic acid] |
| 579 nM | Cc1nc(-c2nnn(C)c2CNc2nccc(-c3ccccn3)n2)ccc1O[C@@H]1CC[C@@H](CC(=O)O)C1 (relative stereo) [Example 38, 2-(trans-3-((2-methyl-6-(1-methyl-5-(((4-(pyridin-2-yl)pyrimidin-2-yl)amino)methyl)-1H-1,2,3-triazol-4-yl)pyridin-3-yl)oxy)cyclopentyl)acetic acid] |
| 164 nM | Cc1nc(-c2nnn(C)c2CNc2nccc(C(C)C)n2)ccc1OC[C@@H]1CC[C@H](C(=O)O)C1 (relative stereo) [Example 39, cis-3-(((6-(5-(((4-isopropylpyrimidin-2-yl)amino)methyl)-1-methyl-1H-1,2,3-triazol-4-yl)-2-methylpyridin-3-yl)oxy)methyl)cyclopentane-1-carboxylic acid] |
| 325 nM | Cc1noc(-c2ccc(OC[C@@H]3CC[C@H](C(=O)O)C3)cc2)c1COC(=O)N(C)C1CCCC1 (relative stereo) [Example 41, Cis-3-((4-(4-(((cyclopentyl(methyl)carbamoyl)oxy)methyl)-3-methylisoxazol-5-yl)phenoxy)methyl)cyclopentane-1-carboxylic acid] |
| 31 nM | Cc1noc(-c2ccc(O[C@H]3CC[C@H](C(=O)O)C3)cc2)c1NC(=O)O[C@H](C)c1ccccc1 (single isomer, unassigned) [Example 2] |
